pIC50: −log10 of the molar value. The source made the active and inactive calls. No cut-off for these calls is given here.
Key:
HL-60 [1] = experiment: Inhibition of STAT5 phosphorylation in human HL60 cells at 0.1 to 10 uM after 12 hrs by Western blot method; assay type: cell-based
MV4-11 [2] = experiment: Induction of apoptosis in human MV4-11 cells assessed as increase in cleaved caspase-3 level at 0.1 to 10 uM after 12 hrs by Western blot method; assay type: functional, cell-based
MDA-MB-231 = experiment: Cytotoxicity against human MDA-MB-231 cells assessed as cell viability at 1 uM after 24 hrs by WST1 assay; assay type: functional; settings: MDA-MB-231, 24 h, read-out: Activity
[3] = target: Tyrosine-protein kinase ABL1 (Homo sapiens) (UniProt P00519); experiment: Inhibition of ABL1 (unknown origin) at 10 uM assessed as residual enzyme activity
[4] = target: RAC-alpha serine/threonine-protein kinase (Homo sapiens) (UniProt P31749); experiment: Inhibition of AKT1 (unknown origin) at 10 uM assessed as residual enzyme activity
[5] = target: Receptor-type tyrosine-protein kinase FLT3 (Homo sapiens) (UniProt P36888); experiment: Inhibition of FLT3 in human MV4-11 cells assessed as reduction in ERK phosphorylation after 12 hrs by Western blot method; assay type: cell-based
Receptor-type tyrosine-protein kinase FLT3 (Homo sapiens), sequence (P36888 whole entry): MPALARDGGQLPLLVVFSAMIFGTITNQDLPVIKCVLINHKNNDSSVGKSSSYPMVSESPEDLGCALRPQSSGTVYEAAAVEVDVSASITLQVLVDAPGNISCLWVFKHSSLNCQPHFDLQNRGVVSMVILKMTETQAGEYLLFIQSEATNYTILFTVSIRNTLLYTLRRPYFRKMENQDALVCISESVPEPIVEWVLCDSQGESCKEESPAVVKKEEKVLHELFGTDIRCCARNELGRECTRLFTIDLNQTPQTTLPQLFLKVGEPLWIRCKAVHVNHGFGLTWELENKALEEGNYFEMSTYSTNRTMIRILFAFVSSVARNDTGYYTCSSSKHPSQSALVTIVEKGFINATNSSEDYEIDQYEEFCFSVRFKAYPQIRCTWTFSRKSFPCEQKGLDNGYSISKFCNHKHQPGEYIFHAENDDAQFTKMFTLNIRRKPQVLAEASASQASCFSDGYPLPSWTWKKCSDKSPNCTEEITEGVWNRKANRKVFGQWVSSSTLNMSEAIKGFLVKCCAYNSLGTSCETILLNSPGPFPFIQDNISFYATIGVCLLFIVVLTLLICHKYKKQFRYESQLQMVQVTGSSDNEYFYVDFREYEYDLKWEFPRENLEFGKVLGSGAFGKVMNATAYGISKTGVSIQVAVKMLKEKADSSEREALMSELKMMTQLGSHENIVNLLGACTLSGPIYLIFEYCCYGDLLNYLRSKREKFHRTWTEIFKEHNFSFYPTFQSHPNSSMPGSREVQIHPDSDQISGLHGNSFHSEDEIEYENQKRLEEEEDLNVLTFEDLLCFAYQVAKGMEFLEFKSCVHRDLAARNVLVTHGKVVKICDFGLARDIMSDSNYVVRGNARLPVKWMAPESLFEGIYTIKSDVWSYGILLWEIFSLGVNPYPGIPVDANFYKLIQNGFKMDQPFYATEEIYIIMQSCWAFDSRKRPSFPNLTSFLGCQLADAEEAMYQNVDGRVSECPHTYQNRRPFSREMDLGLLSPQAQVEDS

[6] = target: ALK tyrosine kinase receptor (Homo sapiens) (UniProt Q9UM73); experiment: Inhibition of ALK (unknown origin) at 10 uM assessed as residual enzyme activity
[7] = test system: RAF proto-oncogene serine/threonine-protein kinase; experiment: Inhibition of Raf1 (unknown origin) at 10 uM assessed as residual enzyme activity; settings: Homo sapiens
[8] = target: Tyrosine-protein kinase Lyn (Homo sapiens) (UniProt P07948); experiment: Inhibition of LYN (unknown origin) at 10 uM assessed as residual enzyme activity
[9] = target: Vascular endothelial growth factor receptor 1 (Homo sapiens) (UniProt P17948); experiment: Inhibition of VEGFR1 (unknown origin) at 10 uM assessed as residual enzyme activity
[10] = target: Mitogen-activated protein kinase 1 (Homo sapiens) (UniProt P28482); experiment: Inhibition of ERK2 (unknown origin) at 10 uM assessed as residual enzyme activity
Mitogen-activated protein kinase 1 (Homo sapiens), sequence (P28482 whole entry): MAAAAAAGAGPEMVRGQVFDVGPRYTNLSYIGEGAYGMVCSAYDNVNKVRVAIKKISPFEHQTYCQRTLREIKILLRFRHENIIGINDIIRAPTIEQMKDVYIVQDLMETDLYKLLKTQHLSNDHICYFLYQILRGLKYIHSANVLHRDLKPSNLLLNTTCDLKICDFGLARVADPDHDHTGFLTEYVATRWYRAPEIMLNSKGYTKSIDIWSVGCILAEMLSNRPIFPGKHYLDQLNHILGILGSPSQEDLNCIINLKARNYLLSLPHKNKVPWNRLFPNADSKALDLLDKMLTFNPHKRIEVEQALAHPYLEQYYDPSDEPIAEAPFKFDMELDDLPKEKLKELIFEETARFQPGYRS

[11] = target: Tyrosine-protein kinase Lck (Homo sapiens) (UniProt P06239); experiment: Inhibition of LCK (unknown origin) at 10 uM assessed as residual enzyme activity
[12] = target: Tyrosine-protein kinase JAK1 (Homo sapiens) (UniProt P23458); experiment: Inhibition of JAK1 (unknown origin) at 10 uM assessed as residual enzyme activity
Tyrosine-protein kinase JAK1 (Homo sapiens), sequence (P23458 whole entry): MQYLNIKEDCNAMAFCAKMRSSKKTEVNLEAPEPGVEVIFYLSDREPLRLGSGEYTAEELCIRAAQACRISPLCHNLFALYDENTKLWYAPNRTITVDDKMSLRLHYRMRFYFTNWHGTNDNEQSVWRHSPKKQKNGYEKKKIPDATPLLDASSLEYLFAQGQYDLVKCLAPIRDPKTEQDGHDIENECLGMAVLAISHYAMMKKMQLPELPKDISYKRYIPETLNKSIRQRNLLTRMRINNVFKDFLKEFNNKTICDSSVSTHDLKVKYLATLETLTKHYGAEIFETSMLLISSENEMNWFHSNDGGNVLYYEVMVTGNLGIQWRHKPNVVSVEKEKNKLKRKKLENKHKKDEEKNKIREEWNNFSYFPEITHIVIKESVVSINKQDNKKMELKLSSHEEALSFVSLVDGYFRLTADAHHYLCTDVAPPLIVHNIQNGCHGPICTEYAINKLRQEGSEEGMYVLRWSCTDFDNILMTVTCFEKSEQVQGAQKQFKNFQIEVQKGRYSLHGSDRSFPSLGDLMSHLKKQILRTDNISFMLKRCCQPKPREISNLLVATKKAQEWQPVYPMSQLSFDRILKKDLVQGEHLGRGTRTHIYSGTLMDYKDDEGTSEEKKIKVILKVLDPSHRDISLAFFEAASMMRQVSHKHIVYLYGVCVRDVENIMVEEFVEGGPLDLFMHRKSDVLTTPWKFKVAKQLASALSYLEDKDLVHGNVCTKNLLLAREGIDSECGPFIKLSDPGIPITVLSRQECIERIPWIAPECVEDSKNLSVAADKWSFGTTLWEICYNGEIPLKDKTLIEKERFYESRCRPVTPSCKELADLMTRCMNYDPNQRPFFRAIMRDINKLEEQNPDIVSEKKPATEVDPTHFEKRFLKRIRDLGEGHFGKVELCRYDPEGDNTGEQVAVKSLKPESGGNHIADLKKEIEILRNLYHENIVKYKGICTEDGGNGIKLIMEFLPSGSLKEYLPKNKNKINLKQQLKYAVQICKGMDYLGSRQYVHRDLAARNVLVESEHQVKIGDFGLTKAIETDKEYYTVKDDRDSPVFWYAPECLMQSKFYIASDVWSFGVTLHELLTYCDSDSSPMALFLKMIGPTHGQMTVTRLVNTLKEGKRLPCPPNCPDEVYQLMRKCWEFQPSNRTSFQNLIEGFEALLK

[13] = Cytotoxicity against mouse NIH/3T3 cells assessed as cell viability at 1 uM after 24 hrs by WST1 assay; assay type: cell-based, NIH3T3; settings: read-out: Activity
[14] = target: CDK1/Cyclin A (Homo sapiens) (UniProt P06493+P20248); experiment: Inhibition of CDK1/Cyclin A (unknown origin) at 10 uM assessed as residual enzyme activity; assay type: protein-complex assay
[15] = target: Insulin receptor (Homo sapiens) (UniProt P06213); experiment: Inhibition of IR (unknown origin) at 10 uM assessed as residual enzyme activity
Insulin receptor (Homo sapiens), sequence (P06213 28-758 limits assumed): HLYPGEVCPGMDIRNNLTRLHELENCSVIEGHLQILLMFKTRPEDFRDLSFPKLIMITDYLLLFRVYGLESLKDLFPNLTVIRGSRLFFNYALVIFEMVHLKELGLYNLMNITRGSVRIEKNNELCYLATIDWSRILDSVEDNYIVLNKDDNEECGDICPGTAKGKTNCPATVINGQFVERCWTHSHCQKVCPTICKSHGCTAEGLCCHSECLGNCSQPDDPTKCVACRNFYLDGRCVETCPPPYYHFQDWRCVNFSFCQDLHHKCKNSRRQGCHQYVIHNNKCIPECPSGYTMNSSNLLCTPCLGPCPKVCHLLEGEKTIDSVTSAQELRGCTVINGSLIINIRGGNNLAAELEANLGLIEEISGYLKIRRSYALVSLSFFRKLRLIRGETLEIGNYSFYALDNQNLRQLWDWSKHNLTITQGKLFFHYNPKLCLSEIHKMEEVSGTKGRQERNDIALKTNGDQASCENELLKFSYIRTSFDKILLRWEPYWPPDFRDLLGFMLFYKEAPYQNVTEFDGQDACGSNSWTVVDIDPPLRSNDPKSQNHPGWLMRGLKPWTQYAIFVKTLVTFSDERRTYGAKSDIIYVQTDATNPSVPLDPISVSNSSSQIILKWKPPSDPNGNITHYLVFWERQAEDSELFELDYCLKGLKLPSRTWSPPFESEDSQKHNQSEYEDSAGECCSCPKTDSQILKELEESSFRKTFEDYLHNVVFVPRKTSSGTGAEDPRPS
Insulin receptor (Homo sapiens), sequence (P06213 763-1382 limits assumed): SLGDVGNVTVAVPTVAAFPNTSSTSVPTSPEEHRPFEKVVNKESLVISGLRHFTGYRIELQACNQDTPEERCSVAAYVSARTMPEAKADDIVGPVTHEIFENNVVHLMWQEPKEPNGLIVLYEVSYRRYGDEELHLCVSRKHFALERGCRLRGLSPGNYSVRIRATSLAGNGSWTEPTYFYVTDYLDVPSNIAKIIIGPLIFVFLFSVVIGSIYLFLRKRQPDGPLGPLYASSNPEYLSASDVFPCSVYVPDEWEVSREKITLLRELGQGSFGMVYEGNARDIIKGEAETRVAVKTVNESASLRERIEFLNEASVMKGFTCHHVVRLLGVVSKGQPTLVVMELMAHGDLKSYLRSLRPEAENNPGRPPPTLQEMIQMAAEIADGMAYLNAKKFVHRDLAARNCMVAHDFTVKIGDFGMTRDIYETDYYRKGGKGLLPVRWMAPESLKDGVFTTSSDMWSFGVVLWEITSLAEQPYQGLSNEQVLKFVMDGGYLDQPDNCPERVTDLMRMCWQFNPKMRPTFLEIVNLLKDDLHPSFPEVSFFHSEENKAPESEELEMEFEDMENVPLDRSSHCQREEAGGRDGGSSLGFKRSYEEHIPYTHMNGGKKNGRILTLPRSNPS

[16] = target: Serine/threonine-protein kinase Nek4 (Homo sapiens) (UniProt P51957); experiment: Inhibition of STK2 (unknown origin) at 10 uM assessed as residual enzyme activity
[17] = target: Vascular endothelial growth factor receptor 3 (Homo sapiens) (UniProt P35916); experiment: Inhibition of VEGFR3 (unknown origin) at 10 uM assessed as residual enzyme activity
MV4-11 [18] = experiment: Induction of apoptosis in human MV4-11 cells assessed as caspase 3 cleavage at 0.1 to 10 uM after 12 hrs by Western blot method; assay type: functional, cell-based
HL-60 [19] = experiment: Inhibition of ERK phosphorylation in human HL60 cells at 0.1 to 10 uM after 12 hrs by Western blot method; assay type: cell-based
[20] = target: Mast/stem cell growth factor receptor Kit (Homo sapiens) (UniProt P10721); experiment: Inhibition of c-KIT (unknown origin) at 10 uM assessed as residual enzyme activity
[21] = target: Ribosomal protein S6 kinase beta-1 (Homo sapiens) (UniProt P23443); experiment: Inhibition of p70S6K (unknown origin) at 10 uM assessed as residual enzyme activity
Ribosomal protein S6 kinase beta-1 (Homo sapiens), sequence (P23443 whole entry, looked up): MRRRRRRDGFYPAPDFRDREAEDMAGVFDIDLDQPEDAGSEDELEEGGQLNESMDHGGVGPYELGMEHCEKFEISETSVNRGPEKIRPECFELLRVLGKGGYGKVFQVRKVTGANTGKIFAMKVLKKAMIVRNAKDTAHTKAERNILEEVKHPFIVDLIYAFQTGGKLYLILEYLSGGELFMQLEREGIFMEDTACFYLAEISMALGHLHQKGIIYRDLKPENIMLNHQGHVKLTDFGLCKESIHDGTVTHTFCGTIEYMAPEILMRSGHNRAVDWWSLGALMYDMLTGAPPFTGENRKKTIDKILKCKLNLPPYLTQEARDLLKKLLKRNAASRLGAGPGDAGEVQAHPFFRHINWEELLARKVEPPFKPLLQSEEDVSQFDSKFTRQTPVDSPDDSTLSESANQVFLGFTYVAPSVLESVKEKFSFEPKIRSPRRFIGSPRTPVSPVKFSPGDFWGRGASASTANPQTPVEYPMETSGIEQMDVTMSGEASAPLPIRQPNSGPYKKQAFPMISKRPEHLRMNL

[22] = target: Macrophage colony-stimulating factor 1 receptor (Homo sapiens) (UniProt P07333); experiment: Inhibition of FMS (unknown origin) at 10 uM assessed as residual enzyme activity
[23] = target: Proto-oncogene tyrosine-protein kinase Src (Homo sapiens) (UniProt P12931); experiment: Inhibition of c-Src (unknown origin) at 10 uM assessed as residual enzyme activity
[24] = target: Proto-oncogene tyrosine-protein kinase receptor Ret (Homo sapiens) (UniProt P07949); experiment: Inhibition of RET (unknown origin) at 10 uM assessed as residual enzyme activity
MV4-11 [25] = experiment: Cytotoxicity against human MV4-11 cells assessed as cell viability at 1 uM after 24 hrs by WST1 assay; assay type: functional; settings: MV4-11, 24 h, read-out: Activity
[26] = target: Serine/threonine-protein kinase PLK1 (Homo sapiens) (UniProt P53350); experiment: Inhibition of PLK1 (unknown origin) at 10 uM assessed as residual enzyme activity
Homo sapiens = species on record: Homo sapiens; experiment: Inhibition of PKA (unknown origin) at 10 uM assessed as residual enzyme activity
[27] = Cytotoxicity against rat L6 cells assessed as cell viability at 1 uM after 24 hrs by WST1 assay; assay type: cell-based; settings: read-out: Activity
[28] = target: Mitogen-activated protein kinase 11 (Homo sapiens) (UniProt Q15759); experiment: Inhibition of P38beta (unknown origin) at 10 uM assessed as residual enzyme activity
Mitogen-activated protein kinase 11 (Homo sapiens), sequence (Q15759 whole entry): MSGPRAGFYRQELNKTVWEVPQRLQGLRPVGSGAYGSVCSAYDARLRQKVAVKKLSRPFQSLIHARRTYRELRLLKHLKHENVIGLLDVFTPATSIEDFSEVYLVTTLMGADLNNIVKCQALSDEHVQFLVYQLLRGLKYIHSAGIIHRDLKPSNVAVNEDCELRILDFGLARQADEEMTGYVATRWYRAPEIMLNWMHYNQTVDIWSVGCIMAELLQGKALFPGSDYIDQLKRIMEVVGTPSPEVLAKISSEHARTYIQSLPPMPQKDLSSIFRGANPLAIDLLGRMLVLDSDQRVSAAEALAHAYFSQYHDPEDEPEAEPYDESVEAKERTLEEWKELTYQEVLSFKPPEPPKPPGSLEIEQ

[29] = target: Serine/threonine-protein kinase STK11 (Homo sapiens) (UniProt Q15831); experiment: Inhibition of LKB1 (unknown origin) at 10 uM assessed as residual enzyme activity
[30] = target: Serine/threonine-protein kinase PAK 1 (Homo sapiens) (UniProt Q13153); experiment: Inhibition of PAK1 (unknown origin) at 10 uM assessed as residual enzyme activity
[31] = target: Mitogen-activated protein kinase 3 (Homo sapiens) (UniProt P27361); experiment: Inhibition of ERK1 (unknown origin) at 10 uM assessed as residual enzyme activity
[32] = target: Focal adhesion kinase 1 (Homo sapiens) (UniProt Q05397); experiment: Inhibition of FAK (unknown origin) at 10 uM assessed as residual enzyme activity
[33] = target: Aurora kinase A (Homo sapiens) (UniProt O14965); experiment: Inhibition of Aurora A (unknown origin) at 10 uM assessed as residual enzyme activity
[34] = target: Platelet-derived growth factor receptor beta (Homo sapiens) (UniProt P09619); experiment: Inhibition of PDGFRbeta (unknown origin) at 10 uM assessed as residual enzyme activity
[35] = target: Serine/threonine-protein kinase A-Raf (Homo sapiens) (UniProt P10398); experiment: Inhibition of ARAF (unknown origin) at 10 uM assessed as residual enzyme activity
MV4-11 [36] = experiment: Cytotoxicity against human MV4-11 cells assessed as cell growth inhibition after 24 hrs by WST1 assay; assay type: functional, cell-based
[37] = target: Epidermal growth factor receptor (Homo sapiens) (UniProt P00533); experiment: Inhibition of EGFR (unknown origin) at 10 uM assessed as residual enzyme activity

In the case of COc1ccc(-c2n[nH]c3ncc(-c4ccc(Cl)cc4N)cc23)cc1, the inhibition (HL-60 [1]) was “inactive”, the Activity (MV4-11 [2]) was “Dose-dependent effect” and the viability at 1 µM (MDA-MB-231) was 84%. For the same molecule, the Activity [3] was 88.9%, the Activity [4] was 93.6% and the inhibition [5] was “Dose-dependent effect”. The Activity [6] was 96.5%, the Activity [7] was 94.9% and the Activity [8] was 86.6%. It also gave an Activity [9] of 90%, an Activity [10] of 94% and an Activity [11] of 95.2%. For the same molecule, the Activity [12] was 103%, the viability at 24 h, 1 µM [13] was 106% and the Activity [14] was 97.4%. For the same molecule, the Activity [15] was 95%, the Activity [16] was 85.8% and the Activity [17] was 101%. The Activity (MV4-11 [18]) was “Active”, the inhibition (HL-60 [19]) was “inactive” and the Activity [20] was 99.2%. It also gave an Activity [21] of 94.1%, an Activity [22] of 102% and an Activity [23] of 78.7%. For the same molecule, the Activity [24] was 83.3%, the viability at 1 µM (MV4-11 [25]) was 30% and the Activity [26] was 108%. It also gave an Activity (Homo sapiens) of 93%, a viability at 24 h, 1 µM [27] of 107% and an Activity [28] of 97.8%. It also gave an Activity [29] of 101%, an Activity [30] of 98.9% and an Activity [31] of 95.4%. The Activity [32] was 96.8%, the Activity [33] was 87.7% and the Activity [34] was 96.3%. The Activity [35] was 77%, the “growth inhibition (GI)” value (MV4-11 [36]) was “Dose-dependent effect” and the pIC50 (MV4-11 [36]; MV4-11, 24 h) was 6.23. It also gave an Activity [37] of 91.2%.

From ChEMBL document CHEMBL3217737, “Discovery of a highly selective FLT3 kinase inhibitor from phenotypic cell viability profiling” (Medchemcomm, 2013)
